According to patent publication US12421240B2, “Hydropyrazino[1,2-d][1,4]diazepine compounds for the treatment of autoimmune disease” (Hoffmann-La Roche Inc., priority 2019, dated 2025):

How the values were obtained:
human TLR9 = biological target: T1, human TLR9 (Homo sapiens, UniProt Q9NR96); assay: HEK293-Blue-hTLR-9 cells assay (SEAP reporter, ODN2006 stimulation); type: cell-based; details: HEK293-Blue-hTLR9 cells, ODN2006 ligand, 20 hrs; read-out: HEK/hTLR9 IC50
T1 sequence (Q9NR96 26-1032): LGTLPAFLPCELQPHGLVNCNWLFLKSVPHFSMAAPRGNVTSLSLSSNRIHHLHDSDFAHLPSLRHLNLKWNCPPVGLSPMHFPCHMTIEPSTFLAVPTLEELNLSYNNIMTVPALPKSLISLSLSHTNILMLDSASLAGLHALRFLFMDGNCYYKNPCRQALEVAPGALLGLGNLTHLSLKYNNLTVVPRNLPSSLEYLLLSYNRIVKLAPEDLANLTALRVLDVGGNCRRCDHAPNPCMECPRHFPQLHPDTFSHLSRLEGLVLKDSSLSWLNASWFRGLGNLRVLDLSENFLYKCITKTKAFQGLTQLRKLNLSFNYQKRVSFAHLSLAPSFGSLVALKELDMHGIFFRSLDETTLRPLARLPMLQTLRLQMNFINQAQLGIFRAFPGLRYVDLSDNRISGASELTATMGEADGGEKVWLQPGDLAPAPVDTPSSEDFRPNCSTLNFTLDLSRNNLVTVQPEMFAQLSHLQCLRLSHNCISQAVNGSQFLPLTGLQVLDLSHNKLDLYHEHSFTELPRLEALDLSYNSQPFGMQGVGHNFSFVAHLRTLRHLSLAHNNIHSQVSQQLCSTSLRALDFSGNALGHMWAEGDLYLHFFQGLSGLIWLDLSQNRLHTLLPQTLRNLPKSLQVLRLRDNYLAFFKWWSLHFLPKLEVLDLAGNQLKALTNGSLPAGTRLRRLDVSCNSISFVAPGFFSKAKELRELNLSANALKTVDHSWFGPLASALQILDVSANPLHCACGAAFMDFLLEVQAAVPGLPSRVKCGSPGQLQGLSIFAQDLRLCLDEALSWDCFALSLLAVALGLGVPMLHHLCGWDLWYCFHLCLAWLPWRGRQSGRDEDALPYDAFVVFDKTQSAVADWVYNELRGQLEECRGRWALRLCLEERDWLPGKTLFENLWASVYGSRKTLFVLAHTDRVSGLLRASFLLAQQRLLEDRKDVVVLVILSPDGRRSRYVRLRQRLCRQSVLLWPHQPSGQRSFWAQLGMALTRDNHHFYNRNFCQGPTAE
Protocol: The following tests were carried out in order to determine the activity of the compounds of formula (I), (Ia) or (Ib) in HEK293-Blue-hTLR-7/8/9 cells assay.
HEK293-Blue-hTLR-9 Cells Assay:
A stable HEK293-Blue-hTLR-9 cell line was purchased from InvivoGen (Cat. #: hkb-htlr9, San Diego, California, USA). These cells were originally designed for studying the stimulation of human TLR9 by monitoring the activation of NF-κB. A SEAP (secreted embryonic alkaline phosphatase) reporter gene was placed under the control of the IFN-β minimal promoter fused to five NF-κB and AP-1-binding sites. The SEAP was induced by activating NF-κB and AP-1 via stimulating HEK-Blue hTLR9 cells with TLR9 ligands. Therefore the reporter expression was declined by TLR9 antagonist under the stimulation of a ligand, such as ODN2006 (Cat. #: tlrl-2006-1, Invivogen, San Diego, California, USA), for incubation of 20 hrs. The cell culture supernatant SEAP reporter activity was determined using QUANTI-Blue™ kit (Cat. #: rep-qb1, Invivogen, San Diego, California, USA) at a wavelength of 640 nm, a detection medium that turns purple or blue in the presence of alkaline phosphatase.
HEK293-Blue-hTLR9 cells were incubated at a density of 250,000˜450,000 cells/mL in a volume of 170 μL in a 96-well plate in Dulbecco's Modified Eagle's medium (DMEM) containing 4.5 g/L glucose, 50 U/mL penicillin, […], 2 mM L-glutamine, 10% (v/v) heat-inactivated fetal bovine serum with addition of 20 μL test compound in a serial dilution in the presence of final DMSO at 1% and 10 μL of 20 uM ODN2006 in above DMEM, perform incubation under 37° C. in a CO2 incubator for 20 hrs. Then 20 μL of the supernatant from each well was incubated with 180 μL Quanti-blue substrate solution at 37° C. for 2 h and the absorbance was read at 620-655 nm using a spectrophotometer. The signaling pathway that TLR9 activation leads to downstream NF-κB activation has been widely accepted, and therefore similar reporter assay was modified for evaluating TLR9 antagonist.

[1] = Human microsomal stability assay; type: in vitro ADME; details: human liver microsomes, 1 μM test compound, 0.5 mg/mL protein, 37° C.; low <7.0, medium 7.0-16.2, high 16.2-23.2
Protocol: Human Microsomal Stability Assay
Human liver microsomes (Cat. NO.: 452117, Corning, USA) were preincubated with test compound for 10 minutes at 37° C. in 100 mM potassium phosphate buffer, pH 7.4. The reactions were initiated by adding NADPH regenerating system. The final incubation mixtures contained 1 μM test compound, 0.5 mg/mL liver microsomal protein, 1 mM MgCl2, 1 mM NADP, 1 unit/mL isocitric dehydrogenase and 6 mM isocitric acid in 100 mM potassium phosphate buffer, pH 7.4. After incubation times of 0, 3, 6, 9, 15 and 30 minutes at 37° C., 300 μL of cold ACN (including internal standard) was added to 100 μL incubation mixture to terminate the reaction. Following precipitation and centrifugation, 100 uL supernatant will be taken out and added 300 uL water. The amount of compound remaining in the samples was determined by LC-MS/MS. Controls of no NADPH regenerating system at zero and 30 minutes were also prepared and analyzed. The results were categorized as: low (<7.0 mL/min/kg), medium (7.0-16.2 mL/min/kg) and high (16.2-23.2 mL/min/kg).

Row | IC50 (human TLR9) [µM] | CL (h) [1] [mL/min/kg] | SMILES
1 | 0.0487 | 8.2 | C[C@@H]1CN(c2ccc(C#N)c3ncccc23)C[C@@H]2CCN(Cc3ccc4c(c3)CCNC4)CCN21 [Example 11, 5-[(4R,10aS)-4-methyl-8-(1,2,3,4-tetrahydroisoquinolin-6-ylmethyl)-1,3,4,6,7,9,10,10a-octahydropyrazino[1,2-d][1,4]diazepin-2-yl]quinoline-8-carbonitrile]
2 | 0.0705 | 9.8 | C[C@@H]1CN(c2ccc(C#N)c3ncccc23)C[C@@H]2CCN(Cc3cnc(N4CCNCC4)nc3)CCN21 [Example 14, 5-[(4R,10aS)-4-methyl-8-[(2-piperazin-1-ylpyrimidin-5-yl)methyl]-1,3,4,6,7,9,10,10a-octahydropyrazino[1,2-d][1,4]diazepin-2-yl]quinoline-8-carbonitrile]
3 | 0.0361 | 9.9 | C[C@@H]1CN(c2ccc(C#N)c3ncccc23)C[C@@H]2CCN(Cc3cnc(N4CCNCC4)cn3)CCN21 [Example 15, 5-[(4R,10aS)-4-methyl-8-[(5-piperazin-1-ylpyrazin-2-yl)methyl]-1,3,4,6,7,9,10,10a-octahydropyrazino[1,2-d][1,4]diazepin-2-yl]quinoline-8-carbonitrile]
4 | < 0.0318 | 9.2 | C[C@@H]1CN(c2ccc(C#N)c3ncccc23)C[C@@H]2CCN(Cc3ccc(N4CCNCC4)nc3)CCN21 [Example 17, 5-[(4R,10aS)-4-methyl-8-[(6-piperazin-1-yl-3-pyridyl)methyl]-1,3,4,6,7,9,10,10a-octahydropyrazino[1,2-d][1,4]diazepin-2-yl]quinoline-8-carbonitrile]
5 | 0.105 | 8.5 | C[C@@H]1CN(c2ccc(C#N)c3ncccc23)C[C@@H]2CCN(Cc3ccc(N4CCOC[C@H](N)C4)cn3)CCN21 [Example 21, 5-[(4R,10aS)-8-[[5-[(6R)-6-amino-1,4-oxazepan-4-yl]-2-pyridyl]methyl]-4-methyl-1,3,4,6,7,9,10,10a-octahydropyrazino[1,2-d][1,4]diazepin-2-yl]quinoline-8-carbonitrile]
6 | 0.0391 | 8.8 | C[C@@H]1CN(c2ccc(C#N)c3ncccc23)C[C@@H]2CCN(Cc3ncc(N4CCNCC4)cc3F)CCN21 [Example 23, 5-[(4R,10aS)-8-[(3-fluoro-5-piperazin-1-yl-2-pyridyl)methyl]-4-methyl-1,3,4,6,7,9,10,10a-octahydropyrazino[1,2-d][1,4]diazepin-2-yl]quinoline-8-carbonitrile]
7 | 0.0609 | 9.4 | CO[C@@H]1CN(c2cnc(CN3CC[C@H]4CN(c5ccc(C#N)c6ncccc56)C[C@@H](C)N4CC3)c(F)c2)C[C@H]1N [Example 24, 5-[(4R,10aS)-8-[[5-[(3R,4R)-3-amino-4-methoxy-pyrrolidin-1-yl]-3-fluoro-2-pyridyl]methyl]-4-methyl-1,3,4,6,7,9,10,10a-octahydropyrazino[1,2-d][1,4]diazepin-2-yl]quinoline-8-carbonitrile]
8 | 0.0654 | – | CO[C@@H]1CN(c2cnc(CN3CC[C@H]4CN(c5ccc(C#N)n6ncc(F)c56)C[C@@H](C)N4CC3)c(F)c2)C[C@H]1N [Example 27, 4-[(4R,10aS)-8-[[5-[(3R,4R)-3-amino-4-methoxy-pyrrolidin-1-yl]-3-fluoro-2-pyridyl]methyl]-4-methyl-1,3,4,6,7,9,10,10a-octahydropyrazino[1,2-d][1,4]diazepin-2-yl]-3-fluoro-pyrazolo[1,5-a]pyridine-7-carbonitrile]
9 | < 0.0318 | 6.5 | C[C@@H]1CN(c2cc(=O)n(C)c3ncccc23)C[C@@H]2CCN(Cc3ccc4c(c3)CNCC4)CCN21 [Example 28, 4-[(4R,10aS)-4-methyl-8-(1,2,3,4-tetrahydroisoquinolin-7-ylmethyl)-1,3,4,6,7,9,10,10a-octahydropyrazino[1,2-d][1,4]diazepin-2-yl]-1-methyl-1,8-naphthyridin-2-one]
